Assay results published in patent US11713318B2, “Short conjugated oligoelectrolytes and uses thereof” (The Regents Of The University Of California, priority 2018, dated 2023).

Columns and labels:
Type in all cases: cell-based
A. baumannii = test: MIC panel of pathogens, Table 4; details: Acinetobacter baumannii
S. pneumoniae D39 = test: MIC panel of pathogens, Table 4; details: Streptococcus pneumoniae
S. aureus (MSSA) = test: MIC panel of pathogens, Table 4; details: Staphylococcus aureus
S. flexneri = test: MIC panel of pathogens, Table 4; details: Shigella flexneri
Procedure: (§1) The minimum inhibitory concentration (MIC) was determined according to the Clinical and Laboratory Standards Institute (CLSI) guidelines by broth dilution. […] MIC values were derived after 20 h incubation, and were the result of at least 6 independent determinations.

E. coli = test: MIC panel of pathogens, Table 4; details: Escherichia coli
Procedure: as §1

[1] = Cytotoxicity tested by Eurofins Pharma Discovery Services; details: human, Hep G2 cells; Hep G2, Eurofins; at the concentration given as IC50 bound; read-out: cell viability at the highest or lowest test concentration

Row | SMILES | MIC (A. baumannii) [µg/mL] | MIC (S. pneumoniae D39) [µg/mL] | MIC (S. aureus (MSSA)) [µg/mL] | MIC (S. flexneri) [µg/mL] | MIC (E. coli) [µg/mL] | viability [1] [%]
1 | CCCCCC[N+](C)(C)CCCCCCOc1cc(/C=C/c2cc(OCCCCCC[N+](C)(C)CCCCCC)cc(OCCCCCC[N+](C)(C)CCCCCC)c2)cc(OCCCCCC[N+](C)(C)CCCCCC)c1 [Formula E] | 4 | 4 | 1 | 2 | 2 | 
2 | C[N+](C)(C)CCCCOc1cc(/C=C/c2ccc(/C=C/c3cc(OCCCC[N+](C)(C)C)cc(OCCCC[N+](C)(C)C)c3)cc2)cc(OCCCC[N+](C)(C)C)c1.[I-].[I-].[I-].[I-] [Formula F] |  |  |  |  |  | 70
